From patent publication US20140221340A1 (KYOWA HAKKO KIRIN CO., LTD., priority 2011, published 2014)

The compounds below were run against T1, human CCR10 (Homo sapiens, UniProt P46092) (assay: Calcium assay of human CCR10 (inhibition of CTACK-induced increase in intracellular calcium ion concentration in hCCR10G16 cells)). Details: test compound 100 nmol/L; human recombinant CTACK; hCCR10G16 cells (KJMGER8/Namalwa-derived, Gα16 co-expressed); FLIPR or FDSS.
T1 construct: expressed in transfected cells; host or cells: KJMGER8 cell (cell line derived from Namalwa cell); expression induced with 10 nmol/L β-estradiol
T1 sequence (P46092 1-362): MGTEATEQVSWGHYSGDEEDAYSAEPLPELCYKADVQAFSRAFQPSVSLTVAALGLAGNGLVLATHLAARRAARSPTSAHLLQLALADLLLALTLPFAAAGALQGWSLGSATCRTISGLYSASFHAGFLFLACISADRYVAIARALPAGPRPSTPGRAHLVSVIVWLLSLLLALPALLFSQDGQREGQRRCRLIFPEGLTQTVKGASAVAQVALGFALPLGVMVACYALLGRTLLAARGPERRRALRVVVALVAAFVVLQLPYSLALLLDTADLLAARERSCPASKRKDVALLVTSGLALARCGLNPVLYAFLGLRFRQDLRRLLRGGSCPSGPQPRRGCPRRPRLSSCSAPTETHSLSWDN
Format: cell-based
Experimental: A CCR10-inducible expression plasmid was produced according to a known method (“Analytical Biochemistry”, 2006, vol. 400, page 163). A DNA encoding human CCR10 was obtained by PCR. Using human chromosomal DNA (100 ng; manufactured by Clontech Laboratories, Inc.) as a template, a synthetic DNA having the sequences shown by SEQ ID NOs: 1 and 2 as a human CCR10 cDNA specific primer, and Pyrobest DNA Polymerase (manufactured by TAKARA SHUZO CO. LTD.) as an enzyme, a DNA encoding human CCR10 was obtained by PCR. As a buffer solution for PCR, the buffer solution attached to the enzyme was diluted 10-fold with deionized water and used. Using Thermal Cycler DNA Engine (manufactured by MJ Research), PCR was performed by 35 cycles of reactions composed of an incubation at 90° C. for 2 min, at 94° C. for 30 seconds, at an anneal temperature of 58° C. for 30 seconds, and at 72° C. for 1 min.
The amplified PCR fragment was cleaved with HindIII and NotI, then a human CCR10 DNA fragment was recovered by an agarose gel electrophoresis method. The fragment was incorporated in between the corresponding restriction enzyme sites (HindIII-NotI) of an inducible expression vector, whereby a human CCR10-inducible expression plasmid were prepared.
Using a primer specific to the sequence of the plasmid (synthetic DNA having the sequences shown by SEQ ID NOs: 3 and 4), the sequence of human CCR10 DNA region was determined. For the determination of the base sequence, DNA sequencer 377 (manufactured by PerkinElmer) and a reaction kit (ABI Prism (registered trade mark) BigDye (registered trade mark) Terminator Cycle Sequencing Ready Reaction kit: manufactured by Applied Biosystems) were used. The sequence of human CCR10 DNA matched with the sequence (NM_016602) registered in GenBank.
Cells for the detection of the signal from human CCR10 by a calcium assay were prepared. Human CCR10-inducible expressing cells whose host cell is KJMGER8 cell (cell line derived from Namalwa cell) were prepared according to a known method (“Analy Biochem”, 2006, vol. 400, page 163). Human CCR10-inducible expression plasmid produced above and Gα16 expression plasmid were co-transfected into KJMGER8 cell by an electroporation method (“Cytotechnology”, 1990, vol. 3, page 133), whereby a signal from human CCR10 could be detected by a calcium assay (hereinafter to be referred to as hCCR10G16 cell). Gα16 expression plasmid was produced by incorporating human Gα16 DNA into expression vector pAMoh (WO03/087366). Induced expression of human CCR10 was performed by cultivating hCCR10G16 cells in the presence of 10 nmol/L β-estradiol (manufactured by Sigma Ltd.) for 24 hr.
Cells expressing human CCR10 induced by the above-mentioned method were suspended in RPMI1640 medium and adjusted to cell density of 1.25×10^6 cells/mL. This mixture was dispensed to a 384 well clear bottom plate (manufactured by Corning Incorporated) at 20 μL/well, and these were incubated at 37° C. for several dozen minutes. A loading buffer prepared according to the protocol attached to FLIPR Calcium 3 assay kit (manufactured by Molecular Device) was dispensed to this plate at 20 μL/well, and the plate was incubated at 37° C. for 60 min. A 33 μmol/L DMSO solution of the test compound was diluted 37-fold with RPMI1640 medium and the resulting solution was added at 5 μL/well, and the mixture was incubated at 37° C. for 30 min. 300 nmol/L human recombinant CTACK (manufactured by R and D Systems) diluted with RPMI1640 medium containing 1 w/v % bovine serum albumin was added at 5 μL/well. Change of the intracellular calcium ion concentration for about 5 min after the addition was measured by FLIPR (manufactured by Molecular Device) or FDSS (manufactured by Hamamatsu Photonics K.K.). The difference between the maximum fluorescence intensity and the minimum fluorescence intensity for 5 min was calculated, and taken as the measurement value (maximum fluorescence intensity−minimum fluorescence intensity). […]

| Compound | Inhibitory rate (%) for an increase in calcium ion concentration |
| --- | --- |
| Cc1ccc(F)c(Nc2c(C(=O)N3CCC4(CC3)OCc3ccccc34)cnc3c(S(=O)(=O)NC(=O)C4CC4)cnn23)c1 [a-52] | >100% |

Same assay, conditions: test compound 100 nmol/L; human recombinant CTACK; hCCR10G16 cells (KJMGER8/Namalwa-derived, Gα16 co-expressed); FLIPR or FDSS; read-out: Inhibitory rate (%) for an increase in calcium ion concentration

| Compound | inhibition at 0.1 µM |
| --- | --- |
| O=CNS(=O)(=O)c1cnn2c(Nc3cc(Cl)ccc3Cl)c(C(=O)N3CCC(c4ccc(F)cc4)CC3)cnc12 [a-26, N-{7-(2,5-Dichlorophenylamino)-6-[4-(4-fluorophenyl)piperidine-1-carbonyl]pyrazolo[1,5-a]pyrimidin-3-ylsulfonyl}formamide] | > 100% |
| CCC(=O)NS(=O)(=O)c1cnn2c(Nc3cc(C)ccc3F)c(C(=O)N3CCC4(CC3)OCc3ccccc34)cnc12 [a-51, N-{7-(2-Fluoro-5-methylphenylamino)-6-[3H-spiro(isobenzofuran-1,4′-piperidine)-1′-carbonyl]pyrazolo[1,5-a]pyrimidin-3-ylsulfonyl}propionamide] | > 100% |
| CCNC(=O)NS(=O)(=O)c1cnn2c(Nc3cc(C)ccc3Cl)c(C(=O)N3CCC4(CC3)OCc3ccccc34)cnc12 [a-44, 7-(2-Chloro-5-methylphenylamino)-N-(ethylcarbamoyl)-6-[3H-spiro(isobenzofuran-1,4′-piperidine)-1′-carbonyl]pyrazolo[1,5-a]pyrimidine-3-sulfonamide] | 95.2% |
| Cc1ccc(Cl)c(Nc2c(C(=O)N3CCC(c4ccc(F)cc4)CC3)cnc3c(S(=O)(=O)NC(=O)C4CC4)cnn23)c1 [a-12, N-{7-(2-Chloro-5-methylphenylamino)-6-[4-(4-fluorophenyl)piperidine-1-carbonyl]pyrazolo[1,5-a]pyrimidin-3-ylsulfonyl}cyclopropanecarboxamide] | > 100% |
| O=C(c1cnc2c(S(=O)(=O)Nc3cccnn3)cnn2c1Nc1cc(Cl)ccc1Cl)N1CCC(c2ccc(F)cc2)CC1 [a-79, 7-(2,5-Dichlorophenylamino)-6-[4-(4-fluorophenyl)piperidine-1-carbonyl]-N-(pyridazin-3-yl)pyrazolo[1,5-a]pyrimidine-3-sulfonamide] | > 100% |
| Cc1cc(Nc2c(C(=O)N3CCC(c4ccc(F)cc4)CC3)cnc3c(S(=O)(=O)NC(=O)C4CC4)cnn23)c(Cl)cc1F [a-41, N-{7-(2-Chloro-4-fluoro-5-methylphenylamino)-6-[4-(4-fluorophenyl)piperidine-1-carbonyl]pyrazolo[1,5-a]pyrimidin-3-ylsulfonyl}cyclopropanecarboxamide] | > 100% |
| CC(=O)NS(=O)(=O)c1cnn2c(Nc3cccc(Cl)c3Cl)c(C(=O)N3CCC(c4ccc(F)cc4)CC3)cnc12 [a-38, N-{7-(2,3-Dichlorophenylamino)-6-[4-(4-fluorophenyl)piperidine-1-carbonyl]pyrazolo[1,5-a]pyrimidin-3-ylsulfonyl}acetamide] | > 100% |
| CCNC(=O)NS(=O)(=O)c1cnn2c(Nc3cc(Cl)ccc3Cl)c(C(=O)N3CCC(c4ccc(F)cc4)CC3)cnc12 [a-23, 7-(2,5-Dichlorophenylamino)-N-(ethylcarbamoyl)-6-[4-(4-fluorophenyl)piperidine-1-carbonyl]pyrazolo[1,5-a]pyrimidine-3-sulfonamide] | 96.7% |
| CCNC(=O)NS(=O)(=O)c1cnn2c(NCc3ccccc3)c(C(=O)N3CCC(c4ccccc4)CC3)cnc12 [a-76, 7-Benzylamino-N-ethylcarbamoyl-6-(4-phenylpiperidine-1-carbonyl)pyrazolo[1,5-a]pyrimidine-3-sulfonamide] | 95.1% |
| CCNC(=O)NS(=O)(=O)c1cnn2c(Nc3ccc(Cl)cc3Cl)c(C(=O)N3CCC(c4ccc(F)cc4)CC3)cnc12 [a-20, 7-(2,4-Dichlorophenylamino)-N-(ethylcarbamoyl)-6-[4-(4-fluorophenyl)piperidine-1-carbonyl]pyrazolo[1,5-a]pyrimidine-3-sulfonamide] | 90.7% |
| CNCC(=O)NS(=O)(=O)c1cnn2c(Nc3ccc(F)cc3C)c(C(=O)N3CCC(c4ccccc4)CC3)cnc12 [a-63, N-[7-(4-Fluoro-2-methylphenylamino)-6-(4-phenylpiperidine-1-carbonyl)pyrazolo[1,5-a]pyrimidin-3-ylsulfonyl]-2-methylaminoacetamide] | 58.8% |
| Cc1ccc(Cl)c(Nc2c(C(=O)N3CCC4(CC3)OCc3ccccc34)cnc3c(S(=O)(=O)NC(=O)C4(C)COC4)cnn23)c1 [a-58, N-{7-(2-Chloro-5-methylphenylamino)-6-[3H-spiro(isobenzofuran-1,4′-piperidine)-1′-carbonyl]pyrazolo[1,5-a]pyrimidin-3-ylsulfonyl}-3-methyloxetane-3-carboxamide] | > 100% |
| O=C(NS(=O)(=O)c1cnn2c(Nc3ccccc3Cl)c(C(=O)N3CCC(c4ccc(F)cc4)CC3)cnc12)C1CC1 [a-9, N-{7-(2-Chlorophenylamino)-6-[4-(4-fluorophenyl)piperidine-1-carbonyl]pyrazolo[1,5-a]pyrimidin-3-ylsulfonyl}cyclopropanecarboxamide] | 80.6% |
| Cc1ccc(Cl)c(Nc2c(C(=O)N3CCC(c4ccc(F)cc4)CC3)cnc3c(S(=O)(=O)NC(N)=O)cnn23)c1 [a-77, N-Carbamoyl-7-(2-chloro-5-methylphenylamino)-6-[4-(4-fluorophenyl)piperidine-1-carbonyl]pyrazolo[1,5-a]pyrimidine-3-sulfonamide] | > 100% |
| CC(=O)NS(=O)(=O)c1cnn2c(Nc3cc(F)ccc3F)c(C(=O)N3CCC(c4ccc(F)cc4)CC3)cnc12 [a-35, N-{7-(2,5-Difluorophenylamino)-6-[4-(4-fluorophenyl)piperidine-1-carbonyl]pyrazolo[1,5-a]pyrimidin-3-ylsulfonyl}acetamide] | > 100% |
| CCONS(=O)(=O)c1cnn2c(Nc3cc(Cl)ccc3Cl)c(C(=O)N3CCC(c4ccc(F)cc4)CC3)cnc12 [a-28, 7-(2,5-Dichlorophenylamino)-N-ethoxy-6-[4-(4-fluorophenyl)piperidine-1-carbonyl]-pyrazolo[1,5-a]pyrimidine-3-sulfonamide] | > 100% |
| CCC(=O)NS(=O)(=O)c1cnn2c(Nc3cc(C)ccc3Cl)c(C(=O)N3CCC4(CC3)OCc3ccccc34)cnc12 [a-56, N-{7-(2-Chloro-5-methylphenylamino)-6-[3H-spiro(isobenzofuran-1,4′-piperidine)-1′-carbonyl]pyrazolo[1,5-a]pyrimidin-3-ylsulfonyl}propionamide] | > 100% |
| CCC(=O)NS(=O)(=O)c1cnn2c(Nc3cc(F)ccc3F)c(C(=O)N3CCC(c4ccc(F)cc4)CC3)cnc12 [a-36, N-{7-(2,5-Difluorophenylamino)-6-[4-(4-fluorophenyl)piperidine-1-carbonyl]pyrazolo[1,5-a]pyrimidin-3-ylsulfonyl}propionamide] | > 100% |
